Measured values reported in patent US20260124184A1, “ONCE DAILY ALDOSTERONE SYNTHASE INHIBITOR (R)-(+)-5-(P-CYANOPHENYL)-5,6,7,8-TETRAHYDROIMIDAZO[L,5-A]PYRIDINE” (priority 2022, published 2026).
Like-named read-outs stand apart in the source and are kept apart here.

Test system: patients with primary aldosteronism
Procedure: A double-blind, randomized, Phase 2 trial was conducted between November 2019 and June 2022 at 11 centres in Italy, Switzerland and the Netherlands (NCT04007406). […] Patients requiring fixed-dose antihypertensive therapy continued treatment throughout the study; steroid therapies, β-adrenergic and renin-angiotensin-aldosterone system blockers were not permitted. At 14-day intervals, office blood pressures were recorded and blood samples were taken for measurement of steroid and peptide hormones and electrolytes at a central laboratory.
A centrally calibrated and validated device (Spacelab Healthcare) was used; the device was fitted at the hospital outpatient department by medically qualified staff on day −1 and day 55 prior to supervised drug intake by the patient. The light digital monitor with convenient carry pouches takes the blood pressure reading at regular intervals by inflating and subsequently deflating customized cuffs placed around the non-dominant upper arm for 24-hour recording of about 70 readings. Patients followed their regular routines yet refrained from exercising or taking a bath or shower. In addition, to assure proper measurements, the patient was asked to sit down prior to reading, keep the cuff at the same level as the heart and rest the arm steady. The patient was also asked to keep a diary on activities, meals and sleep to document what he/she was doing just before the reading was taken. At the end of the 24-hour period, the patient was able to remove the monitor and cuff, shower or bathe and return the device to the Investigator at the clinic. The machine stored all readings as source data that were uploaded in the eCRF.
For all efficacy endpoints, changes from baseline were calculated from linear models and accompanied by 95% confidence intervals and p values. Log-transformed values were used for changes in ARR. The full analysis set (FAS) and safety set were defined as all randomized patients who received at least one dose of study drug.

[1] = 4 mg once daily, n=10, Day 1 (baseline)
[2] = 8 mg once daily, n=12, Day 1 (baseline)
[3] = 12 mg once daily, n=13, Day 1 (baseline)
[4] = all doses combined, n=35, Day 1 (baseline)
[5] = all doses combined, n=35, Day 56

(R)-(+)-5-(p-cyanophenyl)-5,6,7,8-tetrahydroimidazolium[1,5-a]pyridine dihydrogen phosphate [dexfadrostat phosphate]
change in 24-h aSBP from baseline to Day 56, mean (4 mg once daily, n=10): −8.10 mmHg
change in 24-h aSBP from baseline to Day 56, median (4 mg once daily, n=10): −8.17 mmHg
24-h aSBP, mean [1]: 136.84 mmHg
24-h aSBP, median [1]: 138.38 mmHg
24-h aSBP, mean (4 mg once daily, n=10, Day 56): 128.74 mmHg
24-h aSBP, median (4 mg once daily, n=10, Day 56): 129.43 mmHg
change in 24-h aSBP from baseline to Day 56, mean (8 mg once daily, n=12): −13.95 mmHg
change in 24-h aSBP from baseline to Day 56, median (8 mg once daily, n=12): −13.33 mmHg
24-h aSBP, mean [2]: 144.88 mmHg
24-h aSBP, median [2]: 144.76 mmHg
24-h aSBP, mean (8 mg once daily, n=12, Day 56): 130.93 mmHg
24-h aSBP, median (8 mg once daily, n=12, Day 56): 129.43 mmHg
change in 24-h aSBP from baseline to Day 56, mean (12 mg once daily, n=13): −9.81 mmHg
change in 24-h aSBP from baseline to Day 56, median (12 mg once daily, n=13): −12.43 mmHg
24-h aSBP, mean [3]: 144.96 mmHg
24-h aSBP, median [3]: 146.87 mmHg
24-h aSBP, mean (12 mg once daily, n=13, Day 56): 135.15 mmHg
24-h aSBP, median (12 mg once daily, n=13, Day 56): 130.82 mmHg
decrease in mean 24-h aSBP from baseline to day 56 (all dose groups combined, p<0.0001): 10.7 mmHg
change in aSBP from baseline to Day 56, mean (all doses combined, n=35): −10.74 mmHg
change in aSBP from baseline to Day 56, median (all doses combined, n=35): −12.23 mmHg
24-hour ambulatory SBP (aSBP), mean [4]: 142.62 mmHg
24-hour ambulatory SBP (aSBP), median [4]: 143.4 mmHg
24-hour ambulatory SBP (aSBP), mean [5]: 131.87 mmHg
24-hour ambulatory SBP (aSBP), median [5]: 130.41 mmHg
LSM change in 24-hour aSBP from baseline (all patients, Day 1 to Day 56, FIG. 2B, p<0.0001): −10.7 mmHg
effect on 24-hour aSBP (each dose arm, baseline to day 56): significant reduction (p<0.001) in 24-hour aSBP
